Where two headings read alike, the source gives them in different places.
Key:
[1] = system: Wild type Chinese Hamster Ovary CHO-K1 cells (WT); test: Fluorometry quantification of internalized CF-peptide in cell lysates; format: cell-based; conditions: for 4 °C - INTERNALIZED, WT (FLUOROMETRY) / 37 °C - INTERNALIZED, WT (FLUOROMETRY): fluorometry of lysate (50 mM Tris pH 7.4, 1 M NaCl, 1% NP40, sonicated), ex 494 nm, calibration curve, 10^6 cells, 7.5 μM peptide in DMEM, 60 min, mean ± spread, n in cell; for 4 °C - INTERNALIZED, WT (FLUOROMETRY): 4 °C (translocation only), 0.05% pronase digestion; for 37 °C - INTERNALIZED, WT (FLUOROMETRY): 0.05% trypsin/EDTA digestion, μM from 1 pL cell volume
Description: (§1) To quantify CPP internalization in cells, we kept the conditions of sample preparation for the measurement of the quantity of internalized and cell-associated (membrane-bound plus internalized) fluorescent peptides previously optimized for a MALDI-TOF MS based protocol, and illustrated in Fig. 3. Briefly, one million adherent cells were incubated with CF-CPP for the indicated time and temperature. […] Cells were then washed, lysed, sonicated and the lysate was cleared by centrifugation. The amount of internalized peptide was quantified by direct measurement of the fluorescence remaining in the supernatant. To evaluate the quantity of cell-associated (membrane-bound and internalized) peptide, the proteolytic step was omitted. A calibration curve was fitted from the fluorescence intensity of definite amounts of the same peptide in cell lysates ran in parallel for each experiment (Fig. 3). Comparison of the fluorescence intensity between the samples and the calibration curve permitted the absolute quantification of internalized and cell-associated peptides.
(§2) Figure 4 Quantification by fluorometry of (A) internalized and (B) membrane-bound CF-Penetratin in WT, GAG^deficient and SA^deficient CHO cells. One million cells were incubated with 2.5 or 7.5 μM CF-Penetratin in DMEM for 60 min at 37 °C or 4 °C. To measure the total cell-associated peptide (membrane-bound plus internalized), cells were washed and lysed in a buffer (50 mM Tris pH 7.4, 1 M NaCl, 1% Nonidet P40), sonicated and centrifuged 10 min at 16,000 g. To obtain the internalized peptide, the membrane-bound peptide was digested with 0.05% trypsin/EDTA (37 °C) or pronase (4 °C). After washes, cells were lysed, sonicated and centrifuged. To calculate the amount of internalized and membrane bound cell peptide, we compare the fluorescence intensity (excitation at 494 nm) to the calibration curve obtained from parallel experiments (see Fig. 3). Error bars correspond to standard errors obtained from n = 4 independent experiments for each experimental condition. Intracellular concentrations (μM) were calculated from the mean volume of one CHO cell (assimilated to a sphere of 10–15 μm diameter) being 1 pL: picomoles in 1 μL (10^6 cells) thus correspond to μM concentrations.
(§3) Wild type Chinese Hamster Ovary CHO-K1 cells (WT), xylose-transferase- or GAG-deficient CHO-pgsA745 cells (GAG^deficient) and sialic acid deficient CHO-lec2 cells (SA^deficient) (ATCC, LGC Standards S.a.r.l. - France) were cultured in F12 growth medium (DMEM-F12) supplemented with 10% fetal calf serum (FCS), penicillin (100,000 IU/L), streptomycin (100,000 IU/L), and amphotericin B (1 mg/L) in a humidified atmosphere containing 5% CO2 at 37 °C.
(§4) One million cells were incubated one hour at 37 °C or 4 °C with CF-Penetratin (2.5 μM and 7.5 μM), Biotin-(CF)Penetratin, CF-Arg9 and CF-TAT (7.5 μM) in 1 mL DMEM.
(§5) To access internalized peptides, after washing cells with HBSS, (0.05%) 500 μL trypsin/EDTA (37 °C, 5 min) or (0.05%) pronase (4 °C, 10 min) was added for 5 min to hydrolyze the remaining extracellular and the membrane-bound peptide and to detach cells. After addition of enzyme inhibitors (100 μL (one Complete Mini tablet, Roche, in 2.5 mL PBS) mixed with 100 μL bovine serum albumin (1 mg/mL), cells were transferred into a microtube, centrifuged, washed with 1 mL 50 mM Tris buffer pH 7.4, 0.1% BSA, and lysed in 200 μL 50 mM Tris pH 7.4, 1 M NaCl, 1% NP40. The samples were then sonicated for 30 min and centrifuged 10 min at 16,000 g.
(§6) To obtain the value of the total cell-associated peptide (internalized and membrane-bound species), after washing cells with HBSS, cells were directly lysed in 50 mM Tris pH 7.4, 1 M NaCl, 1% NP40. The samples were then sonicated for 30 min and centrifuged 10 min at 16,000 g.

CHO cells [2] = test: Cytotoxicity, Cell Counting Kit 8 (CCK-8); format: cell-based, Chinese Hamster; conditions: 2 × 10^4 CHO cells/well, peptide 1; 5; 10 and 20 μM, 60 min, then 3 h 10% CCK-8, absorbance 450 nm
Description: Cytotoxicity was determined with the Cell Counting Kit 8 (CCK-8) from Dojindo Molecular Technologies. This colorimetric assay allows to measure the viability of cells. 96-well plates were inoculated with 100 μL/well of a suspension of CHO cells (2.10^4 cells/well). […] After washing, the cells were incubated with 100 μL of 10% CCK-8 in DMEM for 3 hours and the absorbance was measured at 450 nm with a microplate reader (Polarstar Optima). Controls corresponded to untreated cells (negative control, 100% viability) and cells treated with 0.2% of Triton X-100 (positive control, 0% viability). Supplementary Figure S1. […] A 96-well plate was inoculated with 100 µL/well of a suspension of CHO cells (2 × 10^4 cells/well). […] Controls corresponded to untreated cells (negative control, 100% viability) and cells treated with 0.2% of Triton X-100 (positive control, 0% viability).

[3] = system: sialic acid deficient CHO-lec2 cells (SA^deficient); conditions: fluorometry of lysate (50 mM Tris pH 7.4, 1 M NaCl, 1% NP40, sonicated), ex 494 nm, calibration curve, 10^6 cells, 7.5 μM peptide in DMEM, 60 min, mean ± spread, n in cell; for 37 °C - INTERNALIZED, SA^deficient (FLUOROMETRY): trypsin digestion; for 4 °C - INTERNALIZED, SA^deficient (FLUOROMETRY): pronase digestion
Description: as §1, §2, §3, §4, §5, §6

[4] = system: GAG-deficient CHO-pgsA745 cells (GAG^deficient); conditions: fluorometry of lysate (50 mM Tris pH 7.4, 1 M NaCl, 1% NP40, sonicated), ex 494 nm, calibration curve, 10^6 cells, 7.5 μM peptide in DMEM, 60 min, mean ± spread, n in cell; for 37 °C - INTERNALIZED, GAG^deficient (FLUOROMETRY): trypsin digestion; for 4 °C - INTERNALIZED, GAG^deficient (FLUOROMETRY): pronase digestion
Description: as §1, §2, §3, §4, §5, §6

[5] = system: Wild type Chinese Hamster Ovary CHO-K1 cells (WT); conditions: 7.5 μM extracellular peptide
Description: as §1, §3
(§7) The protocol has been fully described elsewhere by Burlina et al.[14][16]. Briefly, one million adherent cells were incubated one hour with biotin-labeled peptides (^1H-CPP). After washing with HBSS, 0.05% trypsin/EDTA (37 °C, 5 min) or 0.05% pronase (4 °C, 10 min) digestion, cells were lysed in a solution containing a relevant quantity of the deuterated form (^2H-CPP) of the same peptide sequence, which is used as internal standard to quantify the internalized amount of ^1H-CPP. MALDI-TOF MS analyses were done using cyano-4-hydroxy-cinnamic acid (CHCA), for Biotin-Penetratin or sinapinic acid for Biotin-(CF)Penetratin. Unless indicated, experiments were performed in triplicates and repeated at least three times independently.

[6] = system: GAG-deficient CHO-pgsA745 cells (GAG^deficient); conditions: MALDI-TOF MS (sinapinic acid matrix), 2H-peptide internal standard, 10^6 adherent cells, 7.5 μM extracellular peptide, 1 h, trypsin digestion
Description: as §1, §3, §7

[7] = system: Wild type Chinese Hamster Ovary CHO-K1 cells (WT); conditions: MALDI-TOF MS of lysate, 2H-peptide internal standard, 10^6 adherent cells, 7.5 μM extracellular peptide, 1 h, ref [19], cited from earlier work
[8] = system: sialic acid deficient CHO-lec2 cells (SA^deficient); conditions: MALDI-TOF MS of lysate, 2H-peptide internal standard, 10^6 adherent cells, 7.5 μM extracellular peptide, 1 h, ref [19], cited from earlier work
[9] = system: GAG-deficient CHO-pgsA745 cells (GAG^deficient); conditions: MALDI-TOF MS of lysate, 2H-peptide internal standard, 10^6 adherent cells, 7.5 μM extracellular peptide, 1 h, ref [19], cited from earlier work
CHO cells [10] = system: CHO cells
Description: We examined the impact of the concentration of Trypan Blue on cell-associated fluorescence compared to control conditions in the absence of Trypan Blue. Cells were incubated with CF-Penetratin. After washings, different concentrations of Trypan Blue were added before cytometry analysis. […] We next examined the quenching ability of Trypan Blue on increasing CF-Penetratin concentrations.
Figure 7 Quenching assays of membrane-bound fluorescence for flow cytometry internalization quantification. (A) Fluorescence quenching according to Trypan Blue quantity (% in g for 100 mL). […] After washing with cold PBS, cells were analyzed in the absence or the presence of Trypan Blue. Lower panel: Stern-Volmer plot. (B) Quenching of membrane fluorescence was assayed with various experimental conditions: 0.2% Trypan Blue, 0.01% trypsin (5 min, 37 °C), 0.5 mg/mL heparin (3 times 5 min, 37 °C). 20,000 events were recorded for each experimental condition. Data were normalized to 100% fluorescence in the absence of Trypan Blue.
Cells were dissociated with 0.5 mM EDTA in PBS (5 min at 37 °C), centrifuged at 800 g, and suspended in DMEM culture medium. […] To optimize fluorescence quenching of the membrane-bound fluorescein, the cell suspension was treated with different concentrations of Trypan Blue. […] 20,000 events were recorded for every experimental conditions.

[11] = 37 °C, trypsin digestion, μM from 1 pL cell volume

Substance: Biotin-GGGG(εCF)KRQIKIWFQNRRMKWKK-NH2 [Biotin-(CF)PEN]
- 4 °C - INTERNALIZED, WT (FLUOROMETRY) [1]: 1.5 ± 0.1 (n = 10) μM
- 37 °C - INTERNALIZED, WT (FLUOROMETRY) [1]: 9.8 ±1.0 (n = 14) μM
- cytotoxicity (cell viability, CCK-8) (CHO cells [2]): none of the peptides used in this study was cytotoxic
- 37 °C - INTERNALIZED, SA^deficient (FLUOROMETRY) [3]: 6.9 ± 1.8 (n = 3) μM
- 37 °C - INTERNALIZED, GAG^deficient (FLUOROMETRY) [4]: 1.1 ± 0.1 (n = 4) μM
- 4 °C - INTERNALIZED, WT (MALDI-TOF MS) ([5]; MALDI-TOF MS (sinapinic acid matrix), 2H-peptide internal standard, 10^6 adherent cells, 1 h, 4 °C, pronase digestion): Not detectable
- 37 °C - INTERNALIZED, WT (MALDI-TOF MS) ([5]; MALDI-TOF MS (sinapinic acid matrix), 2H-peptide internal standard, 10^6 adherent cells, 1 h, 37 °C, trypsin digestion, μM from 1 pL cell volume, mean ± spread, n in cell): 8.7 ± 1.1 (n = 19) μM
- intracellular degradation of the internalized peptide, from mass spectra ([5]; MALDI-TOF MS of cell lysate, one-hour incubation, 37 °C): not quickly degraded
- 37 °C - INTERNALIZED, GAG^deficient (MALDI-TOF MS) [6]: Not detectable

Substance: Biotin-GGGGRQIKIWFQNRRMKWKK-NH2 [Biotin-PEN]
- 4 °C - INTERNALIZED, WT (MALDI-TOF MS) ([7]; 4 °C (translocation only), 0.05% pronase digestion): 0.9 ± 0.2 µM
- 37 °C - INTERNALIZED, WT (MALDI-TOF MS) ([7]; 37 °C, membrane-bound peptide digested with 0.05% trypsin/EDTA, μM from 1 pL cell volume): 5.0 ± 0.5 µM
- 4 °C - INTERNALIZED, SA^deficient (MALDI-TOF MS) ([8]; 4 °C, pronase digestion): 1.0 ± 0.2 µM
- 37 °C - INTERNALIZED, SA^deficient (MALDI-TOF MS) [8, 11]: 6.0 ± 1.0 µM
- 4 °C - INTERNALIZED, GAG^deficient (MALDI-TOF MS) ([9]; 4 °C, pronase digestion): 0.6 ± 0.1 µM
- 37 °C - INTERNALIZED, GAG^deficient (MALDI-TOF MS) [9, 11]: 1.9 ± 0.2 µM

Substance: Carboxyfluorescein-Apa-RQIKIWFQNRRMKWKK-NH2 [CF-PEN]
- difference between total cell-associated and internalized fluorescence signals by flow cytometry (CHO cells [10]): 1.25 to 2 folds
- 4 °C - INTERNALIZED, WT (FLUOROMETRY) [1]: 2.4 ± 0.4 (n = 3) μM
- 4 °C - INTERNALIZED, WT (FLUOROMETRY) ([1]; listed as CF-Penetratin): 1 to 2 µM
- 37 °C - INTERNALIZED, WT (FLUOROMETRY) [1]: 22 ± 1.3 (n = 11) μM
- ratio of total cell-associated to internalized peptide by fluorometry ([1]; fluorometry of lysates, cell line not given): ~100 folds
- 4 °C - INTERNALIZED, SA^deficient (FLUOROMETRY) [3]: 1.0 ± 0.1 (n = 4) μM
- 4 °C - INTERNALIZED, SA^deficient (FLUOROMETRY) ([3]; listed as CF-Penetratin): 1 to 2 µM
- 37 °C - INTERNALIZED, SA^deficient (FLUOROMETRY) [3]: 33 ± 5.3 (n = 4) μM
- 4 °C - INTERNALIZED, GAG^deficient (FLUOROMETRY) [4]: 1.7 ± 0.8 (n = 3) μM
- 4 °C - INTERNALIZED, GAG^deficient (FLUOROMETRY) ([4]; listed as CF-Penetratin): 1 to 2 µM
- 37 °C - INTERNALIZED, GAG^deficient (FLUOROMETRY) [4]: 7.0 ± 0.5 (n = 4) μM

Source: paper PMC5107916, “Quantitative fluorescence spectroscopy and flow cytometry analyses of cell-penetrating peptides internalization pathways: optimization, pitfalls, comparison with mass spectrometry quantification” (Scientific Reports, 2016)
